Source: PMC5295395, “Inhibition of PlexA1-mediated brain tumor growth and tumor-associated angiogenesis using a transmembrane domain targeting peptide” (Oncotarget, 2016)

Test system: NRP1 TMD
Experiment: surface plasmon resonance (SPR, Biacore) with NRP1 TMD
Format: binding
Details: Biacore 2000, 20°C, streptavidin CM5 chip, 10 mM HEPES pH 7.4, 150 mM NaCl, 0.005% P20, 3 mM LDAO, flow 5 μl/min
Experimental: A surface plasmon resonance (SPR, Biacore) analysis was also conducted with a synthetic biotinylated PlexA1 peptide immobilized on the chip. […] Due to the high hydrophobic nature and difficulty to produce TMD peptides we only performed this experiment with TMD peptides for which we had experience of successful synthesis. […]
assigned to the “highest Plxna1” group and conversely (Abcam, ab32960-100) was added to the sections in those with a Plxna1 expression below the median to the blocking solution at 4°C overnight at a dilution of 1/100.
“lowest Plxna1” group. […]
For the “TCGA dataset” [50, 51], data were The tissue was rinsed with PBS (3 × 5 minutes) and downloaded from the TCGA data portal (https://tcga- then the endogenous peroxidases were blocked with 1% data.nci.nih.gov/tcga/tcgaHome2.jsp; NCI, USA). RMA H2O2 solution (Sigma, #H1009) in methanol solution normalized gene expression profiles measured with during 20 minutes. […]
Factor (recombinant human) 0.1 ng/ml, Basic Fibroblast RNA was treated with DNase I (Invitrogen) and reverse Growth Factor (recombinant human) 1 ng/ml, Heparin 90 transcribed using the High Capacity cDNA RT Kit μg/ml, Hydrocortisone 1 μg / ml. […] Samples were analyzed using […]

With “TLPAIVGIGGGGGLLLLVIVAVLIAYKRK [MTP-PlexA1, synthetic transmembrane peptide mimicking the TMD of PlexA1]” the “interaction of immobilized biotinylated PlexA1 TMD peptide with NRP1” value was “significantly interacted with NRP1”.
